From US11479551B2, “MTA-cooperative PRMT5 inhibitors” (Mirati Therapeutics, Inc., priority 2019, dated 2022)
Like-named read-outs stand apart in the source and are kept apart here.

What was measured:
[1] = system: HCT116 homozygous MTAP knockout cells; assay: Proliferation assay (CellTiter-Glo, 10 days of treatment), HCT116 MTAP knockout; assay type: cell-based; conditions: read-out: Proliferation HCT116MTAP_KO IC50
Outline: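 Cells (250/well) seeded in McCoy's 5A with 10% FBS, then treated the next day with a PRMT5 inhibitor dose response at 37 °C, 5% CO2. On day 6 they were split 1:10 into fresh medium with the same compound concentration. CellTiter-Glo viability was read on day 11 and IC50 taken after 10 days of treatment.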

[2] = system: PRMT5-dependent Symmetric Di-methyl Arginine signal in HCT116 parental cells; assay: SYM11 In-Cell Western, HCT116 parental; assay type: cell-based; conditions: 4 days of treatment, SYM11/DRAQ5 ratio
Experimental: (§1) Control samples were analyzed in parallel.
Briefly, on Day 0, 2,000 HCT116 parental or HCT116 homozygous MTAP knockout cells were seeded in 96 well plates in McCoy's 5A supplemented with 10% fetal bovine serum and pen/strep and the cells were incubated overnight at 37° C. plus 5% CO2. The following day, cells were treated with DMSO vehicle control or a dose response of PRMT5 inhibitors, and incubated at 37° C. plus 5% CO^2 for four days.
After 4 days of treatment, the cells were fixed by adding 50 μl of 4% paraformaldehyde solution to each well and the cells were incubated for 20 min at room temperature. The paraformaldehyde solution was removed, 150 μl of ice-cold methanol was added and the plate was placed −20° C. for 10 minutes. The methanol was removed, 150 μl of Odyssey Blocking buffer+0.05% Tween20 was added and the plate was incubated at room temperature with shaking for one hour.
The primary SYM11 antibody solution was removed by aspiration and the wells were washed three consecutive times with phosphate buffered saline containing 0.1% Tween-20 (PBST).
The secondary antibody solution was removed by aspiration and the wells were washed three consecutive times with PB ST.
The SYM11 signal and the DRAQ5 signal were quantified using a Li-Cor Odyssey machine reading at […], respectively. The SYM11/DRAQ5 ratio was used to calculate the inhibition of Symmetric Dimethyl Arginine as percent of DMSO control.

[3] = system: PRMT5-dependent Symmetric Di-methyl Arginine signal in HCT116 homozygous MTAP knockout cells; assay: SYM11 In-Cell Western, HCT116 MTAP knockout; assay type: cell-based; conditions: HCT116 homozygous MTAP knockout cells, 4 days of treatment, SYM11/DRAQ5 ratio, read-out: In-cell-Western (SYM11) HCT116 MTAP_KO IC50
[4] = target: T1, PRMT5/MEP50 complex (Homo sapiens (Human), UniProt O14744); assay: PRMT5:MEP50 HotSpot Assay (full-length histone H2A substrate, plus and minus MTA); assay type: biochemical; conditions: in the presence of 2 μM MTA
T1 sequence (O14744 2-637): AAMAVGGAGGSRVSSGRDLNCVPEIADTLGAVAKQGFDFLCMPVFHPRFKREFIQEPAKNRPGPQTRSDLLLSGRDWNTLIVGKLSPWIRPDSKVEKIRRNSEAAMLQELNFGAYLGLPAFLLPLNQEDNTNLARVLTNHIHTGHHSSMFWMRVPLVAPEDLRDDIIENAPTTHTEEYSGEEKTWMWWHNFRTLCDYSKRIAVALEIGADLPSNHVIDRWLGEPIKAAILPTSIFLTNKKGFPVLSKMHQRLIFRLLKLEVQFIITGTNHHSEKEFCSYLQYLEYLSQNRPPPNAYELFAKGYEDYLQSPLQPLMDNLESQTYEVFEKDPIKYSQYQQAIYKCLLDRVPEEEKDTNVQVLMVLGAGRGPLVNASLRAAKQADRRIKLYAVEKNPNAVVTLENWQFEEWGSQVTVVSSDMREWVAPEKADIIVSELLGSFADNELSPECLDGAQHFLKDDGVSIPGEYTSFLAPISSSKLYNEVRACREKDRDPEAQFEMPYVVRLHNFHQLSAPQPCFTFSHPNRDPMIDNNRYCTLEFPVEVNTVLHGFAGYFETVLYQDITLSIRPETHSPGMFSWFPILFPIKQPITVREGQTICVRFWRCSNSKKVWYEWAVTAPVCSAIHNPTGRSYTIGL
T1 sequence (Q9BQA1 2-342 partner): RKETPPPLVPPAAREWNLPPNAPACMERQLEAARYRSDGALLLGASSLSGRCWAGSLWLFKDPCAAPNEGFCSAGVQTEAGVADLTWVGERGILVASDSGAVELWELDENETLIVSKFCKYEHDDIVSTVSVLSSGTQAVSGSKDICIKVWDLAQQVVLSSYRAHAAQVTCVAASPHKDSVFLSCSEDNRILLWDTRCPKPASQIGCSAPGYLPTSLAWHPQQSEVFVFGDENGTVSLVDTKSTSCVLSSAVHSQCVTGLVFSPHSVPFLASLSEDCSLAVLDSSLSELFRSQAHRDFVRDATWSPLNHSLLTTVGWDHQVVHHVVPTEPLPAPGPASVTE
Outline: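 Radiometric filter-binding format using recombinant full-length histone H2A as substrate. After the reaction was stopped, mixtures went onto filter paper and tritiated H2A was quantified by scintillation counting.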

[5] = system: HCT116 parental cells; assay: Proliferation assay (CellTiter-Glo, 10 days of treatment), HCT116 parental; assay type: cell-based
Experimental: as §1
Briefly, on Day 0, 250 HCT116 parental or HCT116 homozygous MTAP knockout cell were seeded in 96 well plates in McCoy's 5A supplemented with 10% fetal bovine serum and pen/strep and the cells were incubated overnight at 37° C. plus 5% CO2.
The following day, cells were treated with DMSO vehicle control or a dose response of PRMT5 inhibitors and incubated at 37 C plus 5% CO2 for five days. On Day 6, the cells were trypsinized and split 1:10 into new 96-well plates with fresh medium containing the same concentration of PRMT5 inhibitor and incubated for an additional 5 days at 37° C. plus 5% CO^2.
On Day 11, the viability of the cells was measured using a CTG assay kit (CellTiter-Glo; Promega cat.no G7573) in accordance with the manufacturer's instructions. The IC50 values for each compound after 10 days of treatment were calculated using GraphPad PRISM software.

[6] = target: T1, PRMT5/MEP50 complex; assay: PRMT5:MEP50 FlashPlate Assay (histone H4 peptide substrate, plus and minus MTA); assay type: biochemical
Experimental: The PRMT5 inhibitory activity of compounds of the present invention was determined using either a PRMT5:MEP50 FlashPlate Assay (Reaction Biology Corporation) or a PRMT5:MEP50 HotSpot Assay (Reaction Biology Corporation).
1. PRMT5:MEP50 FlashPlate Assay

Cn1ncc(-c2ccc3c(=O)[nH]nc(CN)c3c2)c1-c1cc(C2CC2)ccc1C#N [Example 4-161, 2-(4-(4-(aminomethyl)-1-oxo-1,2-dihydrophthalazin-6-yl)-1-methyl-1H-pyrazol-5-yl)-4-cyclopropylbenzonitrile]
IC50 ([1]; Homo sapiens, HCT-116, 240 h): 617 nM | IC50 ([2]; Homo sapiens, HCT-116, 96 h): 6.56 µM | IC50 ([3]; Homo sapiens, HCT-116, 96 h): 87.5 nM | IC50 ([4]; IC50 + 2 μM MTA): 707 nM | IC50 ([5]; Homo sapiens, HCT-116, 240 h): 6.71 µM

Cc1cc(C2CC2)cc(-c2c(-c3ccc4c(=O)[nH]nc(CN)c4c3)cnn2C)c1C#N [Example 12-14, 2-[4-[4-(aminomethyl)-1-oxo-2H-phthalazin-6-yl]-2-methyl-pyrazol-3-yl]-4-cyclopropyl-6-methyl-benzonitrile]
IC50 ([1]; Homo sapiens, HCT-116, 240 h): 226 nM | IC50 ([2]; Homo sapiens, HCT-116, 96 h): 1.81 µM | IC50 ([3]; Homo sapiens, HCT-116, 96 h): 15 nM | IC50 ([4]; IC50 + 2 μM MTA): 182 nM | IC50 ([5]; Homo sapiens, HCT-116, 240 h): > 10 µM

Cc1cc(Cl)cc(-c2c(-c3ccc4c(=O)[nH]nc(CN)c4c3)cnn2C)c1C#N [Example 4-180, 2-(4-(4-(aminomethyl)-1-oxo-1,2-dihydrophthalazin-6-yl)-1-methyl-1H-pyrazol-5-yl)-4-chloro-6-methylbenzonitrile]
IC50 ([1]; Homo sapiens, HCT-116, 240 h): 7110 nM | IC50 ([2]; Homo sapiens, HCT-116, 96 h): 1.41 µM | IC50 ([3]; Homo sapiens, HCT-116, 96 h): 31.9 nM | IC50 ([4]; IC50 + 2 μM MTA): 597 nM | IC50 ([5]; Homo sapiens, HCT-116, 240 h): 0.121 µM

Cn1ncc(-c2ccc3c(=O)[nH]nc(CN)c3c2)c1-c1ccc(Cl)c(Cl)c1 [Example 4-140, 4-(aminomethyl)-6-(5-(3,4-dichlorophenyl)-1-methyl-1H-pyrazol-4-yl)phthalazin-1(2H)-one]
IC50 ([1]; Homo sapiens, HCT-116, 240 h): 3870 nM | IC50 ([2]; Homo sapiens, HCT-116, 96 h): > 10 µM | IC50 ([3]; Homo sapiens, HCT-116, 96 h): 47 nM | IC50 ([4]; IC50 + 2 μM MTA): 1100 nM | IC50 ([5]; Homo sapiens, HCT-116, 240 h): 6.81 µM

COc1ccc(-c2c(-c3ccc4c(=O)[nH]nc(CN)c4c3)cnn2C)c(C#N)c1 [Example 4-160, 2-(4-(4-(aminomethyl)-1-oxo-1,2-dihydrophthalazin-6-yl)-1-methyl-1H-pyrazol-5-yl)-5-methoxybenzonitrile]
IC50 ([1]; Homo sapiens, HCT-116, 240 h): 2030 nM | IC50 ([2]; Homo sapiens, HCT-116, 96 h): > 10 µM | IC50 ([3]; Homo sapiens, HCT-116, 96 h): 944 nM | IC50 ([4]; IC50 + 2 μM MTA): 1110 nM | IC50 ([5]; Homo sapiens, HCT-116, 240 h): 7.7 µM

Cn1ncc(-c2ccc3c(=O)[nH]nc(CN)c3c2)c1-c1sc2ccccc2c1C#N [Example 4-242, 2-(4-(4-(aminomethyl)-1-oxo-1,2-dihydrophthalazin-6-yl)-1-methyl-1H-pyrazol-5-yl)benzo[b]thiophene-3-carbonitrile]
IC50 ([1]; Homo sapiens, HCT-116, 240 h): 44 nM | IC50 ([2]; Homo sapiens, HCT-116, 96 h): > 1 µM | IC50 ([3]; Homo sapiens, HCT-116, 96 h): 2 nM | IC50 ([4]; IC50 + 2 μM MTA): 102 nM | IC50 ([5]; Homo sapiens, HCT-116, 240 h): 4.99 µM

Cc1cc(-c2cnn(C)c2-c2ccc3ccccc3c2C#N)cc2c(CN)n[nH]c(=O)c12 [Example 10-11, 2-(4-(4-(aminomethyl)-8-methyl-1-oxo-1,2-dihydrophthalazin-6-yl)-1-methyl-1H-pyrazol-5-yl)-1-naphthonitrile]
IC50 ([1]; Homo sapiens, HCT-116, 240 h): 29 nM | IC50 ([2]; Homo sapiens, HCT-116, 96 h): 4.26 µM | IC50 ([3]; Homo sapiens, HCT-116, 96 h): 5 nM | IC50 ([4]; IC50 + 2 μM MTA): 34 nM | IC50 ([5]; Homo sapiens, HCT-116, 240 h): 0.763 µM

N#Cc1ccccc1-c1c[nH]c2ncc(-c3ccc4c(=O)[nH]nc(CN)c4c3)cc12 [Example 4-163, 2-(5-(4-(aminomethyl)-1-oxo-1,2-dihydrophthalazin-6-yl)-1H-pyrrolo[2,3-b]pyridin-3-yl)benzonitrile]
IC50 ([1]; Homo sapiens, HCT-116, 240 h): > 10000 nM | IC50 ([2]; Homo sapiens, HCT-116, 96 h): > 3.33 µM | IC50 ([3]; Homo sapiens, HCT-116, 96 h): > 3330 nM | IC50 ([4]; IC50 + 2 μM MTA): 3820 nM | IC50 ([5]; Homo sapiens, HCT-116, 240 h): > 10 µM

Cc1cccc2c(C#N)c(-c3c(-c4ccc5c(=O)[nH]nc(CN)c5c4)cnn3C)ccc12 [Example 12-9, 2-(4-(4-(aminomethyl)-1-oxo-1,2-dihydrophthalazin-6-yl)-1-methyl-1H-pyrazol-5-yl)-5-methyl-1-naphthonitrile]
IC50 ([1]; Homo sapiens, HCT-116, 240 h): 148 nM | IC50 ([2]; Homo sapiens, HCT-116, 96 h): > 10 µM | IC50 ([3]; Homo sapiens, HCT-116, 96 h): 9 nM | IC50 ([4]; IC50 + 2 μM MTA): 178 nM | IC50 ([5]; Homo sapiens, HCT-116, 240 h): 3.35 µM

Cn1ncc(-c2ccc3c(=O)[nH]nc(CN)c3c2)c1-c1cccc(OC2CCC2)c1 [Example 4-137, 4-(aminomethyl)-6-(5-(3-cyclobutoxyphenyl)-1-methyl-1H-pyrazol-4-yl)phthalazin-1(2H)-one]
IC50 ([1]; Homo sapiens, HCT-116, 240 h): 3240 nM | IC50 ([2]; Homo sapiens, HCT-116, 96 h): 5.18 µM | IC50 ([3]; Homo sapiens, HCT-116, 96 h): 88 nM | IC50 ([4]; IC50 + 2 μM MTA): 810 nM | IC50 ([5]; Homo sapiens, HCT-116, 240 h): > 10 µM

Cn1ncc(-c2ccc3c(=O)[nH]nc(CN)c3c2)c1-c1c(F)cc2ccccc2c1C#N (single isomer, unassigned) [Example 16-2]
IC50 [1]: 224 nM | IC50 [2]: > 1 µM | IC50 [3]: 73 nM | IC50 ([4]; read-out: IC50 + 2 μM MTA): 111 nM | IC50 [5]: 5.92 µM

NCc1n[nH]c(=O)c2ccc(-c3cncc(Oc4cccc(Cl)c4)c3)cc12 [Example 4-67, 4-(aminomethyl)-6-(5-(3-chlorophenoxy)pyridin-3-yl)phthalazin-1(2H)-one]
IC50 ([1]; Homo sapiens, HCT-116, 240 h): 2030 nM | IC50 ([6]; IC50 + 2 μM MTA (nM), in the presence of 2 μM MTA): 4 nM | IC50 ([6]; in the absence of MTA, read-out: IC50): 204 nM | IC50 ([2]; Homo sapiens, HCT-116, 96 h): 10 µM | IC50 ([3]; Homo sapiens, HCT-116, 96 h): 945 nM | IC50 ([5]; Homo sapiens, HCT-116, 240 h): 7.7 µM

Cc1cc(OC2CC2)c(C#N)c(-c2c(-c3ccc4c(=O)[nH]nc(CN)c4c3)cnn2C)c1F [Example 4-241, 2-(4-(4-(aminomethyl)-1-oxo-1,2-dihydrophthalazin-6-yl)-1-methyl-1H-pyrazol-5-yl)-6-cyclopropoxy-3-fluoro-4-methylbenzonitrile]
IC50 ([1]; Homo sapiens, HCT-116, 240 h): 51 nM | IC50 ([2]; Homo sapiens, HCT-116, 96 h): > 1 µM | IC50 ([3]; Homo sapiens, HCT-116, 96 h): 14 nM | IC50 ([5]; Homo sapiens, HCT-116, 240 h): 2.4 µM

Cn1ncc(-c2ccc3c(=O)[nH]nc(CN)c3c2)c1-c1cc(F)c2ccccc2c1C#N [Example 4-224, 2-(4-(4-(aminomethyl)-1-oxo-1,2-dihydrophthalazin-6-yl)-1-methyl-1H-pyrazol-5-yl)-4-fluoro-1-naphthonitrile]
IC50 ([1]; Homo sapiens, HCT-116, 240 h): 416 nM | IC50 ([2]; Homo sapiens, HCT-116, 96 h): > 1 µM | IC50 ([3]; Homo sapiens, HCT-116, 96 h): 10 nM | IC50 ([5]; Homo sapiens, HCT-116, 240 h): 7.81 µM

CCc1cc(-c2cnn(C)c2-c2ccc3ccccc3c2C#N)cc2c(CN)n[nH]c(=O)c12 [Example 15-1, 2-[4-[4-(aminomethyl)-8-ethyl-1-oxo-2H-phthalazin-6-yl]-2-methyl-pyrazol-3-yl]naphthalene-1-carbonitrile]
IC50 ([1]; Homo sapiens, HCT-116, 240 h): 51 nM | IC50 ([2]; Homo sapiens, HCT-116, 96 h): > 1 µM | IC50 ([3]; Homo sapiens, HCT-116, 96 h): 22 nM | IC50 ([5]; Homo sapiens, HCT-116, 240 h): 1.56 µM

Cn1ncc(-c2ccc3c(=O)[nH]nc(CN)c3c2)c1-c1c(F)cc2ccccc2c1C#N [Example 4-203, 2-(4-(4-(aminomethyl)-1-oxo-1,2-dihydrophthalazin-6-yl)-1-methyl-1H-pyrazol-5-yl)-3-fluoro-1-naphthonitrile]
IC50 ([1]; Homo sapiens, HCT-116, 240 h): 19 nM | IC50 ([2]; Homo sapiens, HCT-116, 96 h): 0.903 µM | IC50 ([3]; Homo sapiens, HCT-116, 96 h): 2 nM | IC50 ([5]; Homo sapiens, HCT-116, 240 h): 1.21 µM
